For orientation: IC50 means the concentration at which inhibition is half-maximal. Read a high IC50 as weaker potency.

The results in this text go back to patent US7531539B2, “Pyrrolotriazine kinase inhibitors” (Bristol-Myers Squibb Company, priority 2006, dated 2009).

Experiment [1] addresses Casein Kinase 2 A1 kinase (Homo sapiens, UniProt P68400). Description: CK2A1 kinase assay (33P, TCA precipitation). Type of experiment: biochemical. As for the experimental part: (§1) Incubation mixtures employed for the Casein Kinase 2 A1 kinase assay contain Casecin Kinase 2 A1 kinase, a synthetic peptide substrate, ATP, ATP-γ-^33 P and a Hepes buffer containing Mg^2+, NaCl, DTT, and Brij-35. Reactions were incubated for 60 minutes at 30° C. and stopped by the addition of trichloroacetic acid (TCA) to a final concentration 8%. TCA precipitates were collected onto GF/C unifilter plates using a Filtermate universal harvester and the filters are quantitated using a TopCount 96/384-well liquid scintillation counter. Dose response curves were generated to determine the concentration required to inhibit 50% of kinase activity (IC50). Compounds were dissolved at 10 mM in dimethyl sulfoxide (DMSO) and evaluated at ten concentrations, each in duplicate. The final concentration of DMSO in the assay is 1.7%. IC50 values were derived by non-linear regression.

Experiment [2] deals with Casein Kinase 2 A2 kinase (Homo sapiens, UniProt P19784). Briefly: CK2A2 kinase assay (33P, TCA precipitation). Type of experiment: biochemical. As for the experimental part:
as §1, with “A2” for “A1”, “Casein” for “Casecin”, “ATP-γ^33P” for “ATP-γ-^33 P”, “Mg^++,” for “Mg^2+,”, “(IC^50).” for “(IC50).”

Sequence of Casein Kinase 2 A2 kinase (P19784 whole entry): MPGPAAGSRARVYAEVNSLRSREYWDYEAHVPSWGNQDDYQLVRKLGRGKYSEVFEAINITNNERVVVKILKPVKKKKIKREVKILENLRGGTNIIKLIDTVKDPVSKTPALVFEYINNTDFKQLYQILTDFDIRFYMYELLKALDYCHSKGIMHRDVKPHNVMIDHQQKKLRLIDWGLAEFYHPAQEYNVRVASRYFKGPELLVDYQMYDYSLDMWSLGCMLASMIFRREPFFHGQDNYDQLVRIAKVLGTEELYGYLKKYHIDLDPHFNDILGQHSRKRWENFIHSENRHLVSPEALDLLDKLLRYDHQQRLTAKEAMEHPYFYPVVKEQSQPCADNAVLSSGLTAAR
Sequence of Casein Kinase 2 A1 kinase (P68400 whole entry): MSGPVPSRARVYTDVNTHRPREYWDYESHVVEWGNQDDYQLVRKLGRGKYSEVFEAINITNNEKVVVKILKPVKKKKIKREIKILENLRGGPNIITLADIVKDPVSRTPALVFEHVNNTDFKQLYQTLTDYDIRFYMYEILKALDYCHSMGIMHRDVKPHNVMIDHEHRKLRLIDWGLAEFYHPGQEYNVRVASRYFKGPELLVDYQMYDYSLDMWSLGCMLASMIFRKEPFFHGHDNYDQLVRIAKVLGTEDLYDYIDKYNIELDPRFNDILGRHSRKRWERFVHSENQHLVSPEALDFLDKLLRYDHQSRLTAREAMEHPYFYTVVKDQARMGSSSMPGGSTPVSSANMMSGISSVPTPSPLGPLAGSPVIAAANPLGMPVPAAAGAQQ

`Cc1cc(Nc2nc(N3CCCC(c4ccccc4)C3)nn3cccc23)[nH]n1` (stereo not drawn) [Example 204, N-(3-methyl-1H-pyrazol-5-yl)-2-(3-phenylpiperidin-1-yl)pyrrolo[1,2-f][1,2,4]triazin-4-amine]: the IC50 came out at 1860 nM in experiment [1] and 228 nM in experiment [2].
For the compound `COc1ncccc1C1CCN(c2nc(Nc3cc(C)n[nH]3)c3cccn3n2)C1` (stereo not drawn) [Example 213, 2-(3-(2-methoxypyridin-3-yl)pyrrolidin-1-yl)-N-(3-methyl-1H-pyrazol-5-yl)pyrrolo[1,2-f][1,2,4]triazin-4-amine], the values for the IC50 in experiment [1] and in experiment [2] were 349 nM and 43 nM, respectively.
For `Cc1cc(Nc2nc(N3CCC(c4ccccc4)C3)nn3cccc23)[nH]n1` (stereo not drawn) [Example 186, N-(5-methyl-1H-pyrazol-3-yl)-2-(3-phenylpyrrolidin-1-yl)pyrrolo[1,2-f][1,2,4]triazin-4-amine], the IC50 in experiment [1] was 294 nM; in experiment [2], 39 nM.
Take `c1ccc([C@H]2C[C@@H]2c2cc(Nc3nc(N4CCC(c5cccnc5)C4)nn4cccc34)[nH]n2)cc1` (stereo partly drawn) [Example 197, N-(3-((1S,2S)-2-phenylcyclopropyl)-1H-pyrazol-5-yl)-2-(3-(pyridin-3-yl)pyrrolidin-1-yl)pyrrolo[1,2-f][1,2,4]triazin-4-amine]: the IC50 in experiment [1] amounted to 11300 nM; in experiment [2], 1020 nM.
For “2-(3-(2-methoxyphenyl)pyrrolidin-1-yl)-N-(3-methyl-1H-pyrazol-5-yl)pylTolo[1,2-f][1,2,4]triazin-4-amine [Example 176]”, the IC50 in experiment [1] came out at 872 nM; in experiment [2], 89 nM.
For `CC1C[C@@H]1c1cc(Nc2nc(N3CCC(c4cccnc4)C3)nn3cccc23)[nH]n1` (stereo partly drawn) [Example 182, N-(3-((1S,2S)-2-methylcyclopropyl)-1H-pyrazol-5-yl)-2-(3-(pyridin-3-yl)pyrrolidin-1-yl)pyrrolo[1,2-f][1,2,4]triazin-4-amine], the IC50 in experiment [1] amounted to 131 nM; in experiment [2], 13 nM.
`Cc1cc(Nc2nc(N3CCC(c4ccncc4)CC3)nn3cccc23)[nH]n1` [Example 203, N-(3-methyl-1H-pyrazol-5-yl)-2-(4-(pyridin-4-yl)piperidin-1-yl)pyrrolo[1,2-f][1,2,4]triazin-4-amine]: the IC50 in experiment [1] turned out to be 243 nM; in experiment [2], 56 nM.
In the case of `Cc1cc(Nc2nc(N3CCCC3c3cccnc3)nn3cccc23)[nH]n1` (stereo not drawn) [Example 209, N-(3-methyl-1H-pyrazol-5-yl)-2-(2-(pyridin-3-yl)pyrrolidin-1-yl)pyrrolo[1,2-f][1,2,4]triazin-4-amine], the IC50 in experiment [1] is 6070 nM; in experiment [2], 1100 nM.
With `c1ccc(C2CCN(c3nc(Nc4cc(C5CC5)n[nH]4)c4cccn4n3)C2)cc1` (stereo not drawn) [Example 184, N-(3-cyclopropyl-1H-pyrazol-5-yl)-2-(3-phenylpyrrolidin-1-yl)pyrrolo[1,2-f][1,2,4]triazin-4-amine], the IC50 in experiment [1] is 177 nM; in experiment [2] it was 14 nM.
Take `Cc1cc(Nc2nc(N3CCC(CC(=O)O)C3)nn3cccc23)[nH]n1` (stereo not drawn) [Example 199, 2-(1-(4-(3-methyl-1H-pyrazol-5-ylamino)pyrrolo[1,2-f][1,2,4]triazin-2-yl)pyrrolidin-3-yl)acetic acid]: the IC50 worked out at 2350 nM in experiment [1] and 379 nM in experiment [2].
For the compound `Cc1cc(Nc2nc(N3Cc4ccccc4C3)nn3cccc23)[nH]n1` [Example 201, 2-(isoindolin-2-yl)-N-(3-methyl-1,2-f][1,2,4]triazin-4-amine], the IC50 in experiment [1] came out at 159 nM; in experiment [2] it was 25 nM.
The matching figures for `c1ccc(-c2cc(Nc3nc(N4CCC(c5cccnc5)C4)nn4cccc34)[nH]n2)cc1` (stereo not drawn) [Example 174, N-(3-phenyl-1H-pyrazol-5-yl)-2-(3-(pyridin-3-yl)pyrrolidin-1-yl)pyrrolo[1,2f][1,2,4]triazin-4-amine]: 670 nM and 91 nM.
